Data from patent publication EP2446893A1 (priority 2010, dated 2012).
Where two headings read alike, the source gives them in different places. Starred links: 1 amine or outer side, 2 acyl side, 3 side chain; linkers in the order of their positions; H or OH if unused. Non-standard residues stand in square brackets, D forms with d. Residues, ends and D or L forms follow the SMILES beside them. No end group written: not given here. ξ: configuration not given here. X1 = O=C(C(Cc1ccc(O)cc1)N=CC(Cc1ccc(O)cc1)N[*:1])[*:2]; Pro(4S-Me) = C[C@@H]1CN[C@H](C(=O)O)C1; d(hSer) = N[C@H](CCO)C(=O)O; ξY = NC(Cc1ccc(O)cc1)C(=O)O

Assays:
primary rat hepatocytes [1] = type: cell-based; conditions: hepatocytes incubated for 96 hours
Description: (§1) Rat hepatocytes were isolated by in vitro collagenase perfusion, Mellgren G, et al., Journal of Cellular Physiology 1995;163:232-240. Experimental conditions were as described in Herfindal L, et al., J Med Chem 2009;52:5758-5762, except for assay of NaN3 and general cytotoxicity, where the hepatocytes were seeded in collage-coated 24-well culture dishes. Microinjection of hepatocytes was as described previously, Fladmark KE, et al., Hepatology 1997;25:847-855. The hepatocyte death (by apoptosis or necrosis) was evaluated by microscopy. Long-term hepatocyte viability was assessed also by the WST-1 colorimetric assay of mitochondrial dehydrogenase activity (Roche Applied Sciences, Mannheim, Germany).

primary rat hepatocytes [2] = assay: hepatocyte toxicity / long-term viability (microscopy, WST-1); type: cell-based; conditions: for inherent toxicity (morphology, growth, mitochondrial dehydrogenase activity of hepatocytes): hepatocytes incubated for 96 hours; for toxicity for primary rat hepatocytes: not shown
Description: as §1

[3] = solubility in physiological saline; type: physicochemical
[4] = stability on storage and in solution; type: physicochemical
CaM-KII = type: biochemical
OATP1B1 [5] = biological target: T1, OATP1B1 (Homo sapiens, UniProt Q9Y6L6)
Target sequence in this assay (Q9Y6L6 whole entry): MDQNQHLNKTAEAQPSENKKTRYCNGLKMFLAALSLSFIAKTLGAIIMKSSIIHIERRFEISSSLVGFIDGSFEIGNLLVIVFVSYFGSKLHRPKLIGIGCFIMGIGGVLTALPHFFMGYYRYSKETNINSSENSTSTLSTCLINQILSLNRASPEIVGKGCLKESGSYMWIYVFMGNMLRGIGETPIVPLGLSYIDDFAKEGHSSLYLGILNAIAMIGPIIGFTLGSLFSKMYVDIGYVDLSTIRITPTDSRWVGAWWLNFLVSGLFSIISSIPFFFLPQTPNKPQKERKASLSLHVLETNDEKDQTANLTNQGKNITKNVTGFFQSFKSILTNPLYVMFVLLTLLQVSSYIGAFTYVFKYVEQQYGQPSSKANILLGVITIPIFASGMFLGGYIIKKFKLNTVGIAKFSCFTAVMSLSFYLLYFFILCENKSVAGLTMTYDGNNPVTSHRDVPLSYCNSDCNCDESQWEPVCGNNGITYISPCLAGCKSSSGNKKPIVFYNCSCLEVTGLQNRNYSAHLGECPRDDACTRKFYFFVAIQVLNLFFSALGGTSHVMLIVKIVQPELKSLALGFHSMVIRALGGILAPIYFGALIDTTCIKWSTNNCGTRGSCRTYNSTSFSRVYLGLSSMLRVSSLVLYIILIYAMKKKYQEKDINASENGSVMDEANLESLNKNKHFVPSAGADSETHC

Oatp1b2 [6] = biological target: T2, Oatp1b2 (Rattus norvegicus, UniProt Q9QZX8)
T2 sequence (Q9QZX8 1-687): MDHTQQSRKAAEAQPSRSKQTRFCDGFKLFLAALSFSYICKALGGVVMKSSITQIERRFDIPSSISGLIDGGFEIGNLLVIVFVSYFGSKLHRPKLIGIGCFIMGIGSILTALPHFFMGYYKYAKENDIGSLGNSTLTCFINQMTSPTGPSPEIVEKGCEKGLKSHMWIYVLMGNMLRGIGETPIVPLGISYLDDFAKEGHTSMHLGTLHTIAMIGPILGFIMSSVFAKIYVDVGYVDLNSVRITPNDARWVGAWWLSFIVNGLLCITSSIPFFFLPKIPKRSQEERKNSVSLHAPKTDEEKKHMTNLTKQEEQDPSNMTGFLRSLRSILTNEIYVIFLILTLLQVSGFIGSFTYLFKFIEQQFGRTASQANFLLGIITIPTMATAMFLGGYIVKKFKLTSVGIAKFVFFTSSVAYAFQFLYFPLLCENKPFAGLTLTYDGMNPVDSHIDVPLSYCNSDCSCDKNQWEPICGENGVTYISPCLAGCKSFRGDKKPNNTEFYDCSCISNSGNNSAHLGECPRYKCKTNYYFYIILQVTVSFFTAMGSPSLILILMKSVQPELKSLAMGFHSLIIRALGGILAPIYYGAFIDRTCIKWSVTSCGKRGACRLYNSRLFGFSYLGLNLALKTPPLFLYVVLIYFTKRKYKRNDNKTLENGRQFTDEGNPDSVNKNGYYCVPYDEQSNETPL

OATP1B3 [7] = biological target: T3, OATP1B3 (Homo sapiens, UniProt Q9NPD5)
T3 sequence (Q9NPD5 whole entry): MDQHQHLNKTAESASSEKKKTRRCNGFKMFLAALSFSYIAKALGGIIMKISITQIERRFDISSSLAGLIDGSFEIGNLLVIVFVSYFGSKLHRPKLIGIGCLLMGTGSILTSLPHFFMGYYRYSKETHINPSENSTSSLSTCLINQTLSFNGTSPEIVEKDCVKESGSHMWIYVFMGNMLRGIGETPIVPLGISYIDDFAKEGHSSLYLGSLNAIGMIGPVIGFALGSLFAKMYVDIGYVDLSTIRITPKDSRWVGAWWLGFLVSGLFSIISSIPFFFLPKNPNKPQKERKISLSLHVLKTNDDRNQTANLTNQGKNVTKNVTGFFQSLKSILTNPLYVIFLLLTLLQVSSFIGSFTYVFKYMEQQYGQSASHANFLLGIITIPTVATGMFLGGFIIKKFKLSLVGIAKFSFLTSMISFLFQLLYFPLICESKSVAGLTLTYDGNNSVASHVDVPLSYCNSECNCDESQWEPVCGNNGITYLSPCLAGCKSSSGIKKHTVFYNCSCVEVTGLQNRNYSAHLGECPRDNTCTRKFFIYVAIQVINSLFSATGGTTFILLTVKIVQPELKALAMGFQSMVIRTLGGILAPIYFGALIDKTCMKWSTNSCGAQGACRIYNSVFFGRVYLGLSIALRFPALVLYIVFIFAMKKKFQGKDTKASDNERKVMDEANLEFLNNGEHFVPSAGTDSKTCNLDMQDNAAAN

primary rat hepatocytes [8] = test system: primary rat hepatocytes
HEK 293 cells = assay: toxicity for HEK 293 cells with and without OATP1B1/B3 overexpression; conditions: not shown
OATP1B1 [9] = biological target: T1, OATP1B1; remark: listed apart in the source
Target sequence in this assay (Q9Y6L6 whole entry): as the sequence (Q9Y6L6 whole entry) above

Oatp1b2 [10] = biological target: T2, Oatp1b2; remark: listed apart in the source
OATP1B1 [11] = biological target: T1, OATP1B1; type: cell-based
Target sequence in this assay (Q9Y6L6 whole entry, looked up): as the sequence (Q9Y6L6 whole entry) above

OATP1B3 [12] = biological target: T3, OATP1B3; conditions: Gui et al. 2010; cited from earlier work
[13] = biological target: rat hepatocyte channel Oatp1b2 (rat) (UniProt Q9QZX8); assay: cell-based or functional assay

For O=C1OC(c2ccc(O)c(S(=O)(=O)O)c2)(c2ccc(O)c(S(=O)(=O)O)c2)c2c(Br)c(Br)c(Br)c(Br)c21 [BSP, bromosulfophthalein], the “inherent toxicity (morphology, growth, mitochondrial dehydrogenase activity of hepatocytes)” value (primary rat hepatocytes [1]) was “highly toxic”.
In the case of CC(C)[C@@H]1NC(=O)[C@@H]2CCCN2C(=O)[C@@H](CCO)NC(=O)C(Cc2ccc(O)cc2)NC(=O)C(Cc2ccc(O)cc2)N=CC(Cc2ccc(O)cc2)NC(=O)[C@@H]2C[C@H](C)CN2C1=O (stereo partly drawn) [Ncp-M1] (cyclo([X1][ξY][d(hSer)]PV[Pro(4S-Me)])), the “inherent toxicity (morphology, growth, mitochondrial dehydrogenase activity of hepatocytes)” value (primary rat hepatocytes [2]) is reported as “no apparent inherent toxicity”, the “toxicity for primary rat hepatocytes” value (primary rat hepatocytes [2]) is reported as “non-toxic” and the “solubility in physiological saline” value [3] is reported as “high solubility”. The stability in solution ([4]; in solution, in particular acidic solutions) was “degrade in solution”, the stability on storage ([4]; stored at -70°C) was “non-stable” and the “interference with intracellular steps of microcystin action (protein phosphatase inhibition, CaM-KII activation, ROS production, actin rearrangement)” value (CaM-KII) was “did not interfere”. The Ki (OATP1B1 [5]) was 1500 nM, the Ki (Oatp1b2 [6]) was 350 nM and the Ki (OATP1B3 [7]) was 10.63 pM. For the same molecule, the “hepatocyte uptake of microcystin and nodularin” value (primary rat hepatocytes [8]) was “blocks” and the “toxicity for HEK 293 cells” value (HEK 293 cells) was “non-toxic”.
For CC(C)[C@@H]1NC(=O)[C@@H]2CCCN2C(=O)[C@H](CO)NC(=O)[C@H](Cc2ccc(O)cc2)NC(=O)[C@H](Cc2ccc(O)cc2)NC(=O)[C@H](Cc2ccc(O)cc2)NC(=O)[C@@H]2CCCN2C1=O [cyclic peptide of Seq. ID. No. 1, Tyr1-Tyr2-Ser-Pro-Val-Pro-Tyr7] (cyclo(PVPYYYS)), the “inherent toxicity (morphology, growth, mitochondrial dehydrogenase activity of hepatocytes)” value (primary rat hepatocytes [2]) was “no apparent inherent toxicity”, the “toxicity for primary rat hepatocytes” value (primary rat hepatocytes [2]) was “non-toxic” and the “solubility in physiological saline” value [3] was “high solubility”. For the same molecule, the “inhibition of nodularin uptake / nodularin-induced apoptosis” value (OATP1B1 [9]) was “inhibited completely”, the “potency compared with another peptide” value (OATP1B1 [9]) was “lower potency than Ncp-M1” and the “inhibition of nodularin uptake / nodularin-induced apoptosis” value (OATP1B3 [7]) was “inhibited completely”. The “potency compared with another peptide” value (OATP1B3 [7]) was “lower potency than Ncp-M1”, the “preference for inhibition of OATP1B3” value (OATP1B3 [7]) was “even higher OATP1 B3 preference” and the “inhibition of nodularin uptake / nodularin-induced apoptosis” value (Oatp1b2 [10]) was “inhibited completely”. For the same molecule, the “potency compared with another peptide” value (Oatp1b2 [10]) was “lower potency than Ncp-M1” and the “toxicity for HEK 293 cells” value (HEK 293 cells) was “non-toxic”.
C/C=C1/C(=O)N[C@@H](C(=O)O)[C@H](C)C(=O)N[C@@H](CCCNC(=N)N)C(=O)N[C@@H](/C=C/C(C)=C/[C@H](C)[C@H](Cc2ccccc2)OC)[C@H](C)C(=O)N[C@@H](C(=O)O)CCC(=O)N1C [nodularin] showed a Km (OATP1B1 [11]) of 32 nM.
In the case of C[C@H]1[C@H](C)CC[C@]2(C(=O)O)CC[C@]3(C)C(=CC[C@@H]4[C@@]5(C)CC[C@H](O)C(C)(C)[C@@H]5CC[C@]43C)[C@H]12 [ursolic acid], the “selectivity for OATP1B3 compared to OATP1B1” value (OATP1B3 [12]) is given as “ten times”.
With “YYSPVPY [linear version of the same peptide, Tyr-Tyr-Ser-Pro-Val-Pro-Tyr]” the “potency compared with another peptide” value (OATP1B3 [7]) was “considerably less potent”.
With microcystin-LR (peptide) the apparent KM for uptake, deduced from apoptosis of primary rat hepatocytes [13] was 0.27 pM.
